Test system: Recombinant human AMPK proteins (α1β1γ1, α2β1γ1, α1(1-335), α1(1-394) or α2(1-394))
Test: Scintillation Proximity Assay (SPA) of AMPK activation
Assay type: biochemical
Settings: activator concentration for 50% of maximal enzyme activity; 50 nM recombinant AMPK, 2 μM ATP, 30° C., 2 hr
Method in brief: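 Recombinant human AMPK (α1β1γ1, α2β1γ1 or α-subunit truncations), fully pre-phosphorylated, was used at 50 nM with 2 μM biotin-SAMS, 2 μM ATP plus [γ-^33P]ATP in Tris-HCl pH 7.5, MgCl2, DTT, 2 hr at 30° C. Product was captured on streptavidin SPA beads. EC50 was the activator concentration giving 50% of maximal activity.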

EC50 [µM] | Compound
4.44 | COC(=O)c1cccc(CN2C(=O)/C(=C(/c3ccc(Cl)cc3)c3ccccc3OC)c3ccccc32)c1 [Example 10, 3-{3-[1-(4-Chloro-phenyl)-1-(2-methoxy-phenyl)-meth-(Z)-ylidene]-2-oxo-2,3-dihydro-indol-1-ylmethyl}-benzoic acid methyl ester]
1.61 | CC(C)/C(=C1\C(=O)N(Cc2cccc(C(=O)O)c2)c2ccccc21)c1ccsc1 [Example 106, 3-{3-[2-Methyl-1-thiophen-3-yl-prop-(E)-ylidene]-2-oxo-2,3-dihydro-indol-1-ylmethyl}-benzoic acid]
1.57 | CCOC(=O)c1csc(CN2C(=O)/C(=C(\c3ccccc3)c3ccc(Cl)cc3)c3ccccc32)n1 [Example 39, 2-{3-[1-(4-Chloro-phenyl)-1-phenyl-meth-(E)-ylidene]-2-oxo-2,3-dihydro-indol-1-ylmethyl}-thiazole-4-carboxylic acid ethyl ester]
4.87 | COc1ccc2c(c1)/C(=C(/c1ccccc1)c1ccc(Cl)cc1)C(=O)N2Cc1cccc(C(=O)O)c1 [Example 58, 3-{3-[1-(4-Chloro-phenyl)-1-phenyl-meth-(E)-ylidene]-5-methoxy-2-oxo-2,3-dihydro-indol-1-ylmethyl}-benzoic acid]
5.56 | COC(=O)c1cccc(CN2C(=O)/C(=C(\c3ccccc3)c3ccsc3)c3ccccc32)c1 [Example 33, 3-{2-Oxo-3-[1-phenyl-1-thiophen-3-yl-meth-(E)-ylidene]-2,3-dihydro-indol-1-ylmethyl}-benzoic acid methyl ester]
6.07 | COC(=O)c1ccc(CN2C(=O)/C(=C(\c3ccccc3)c3ccc(Cl)cc3)c3ccccc32)cc1 [Example 21, 4-{3-[1-(4-Chloro-phenyl)-1-phenyl-meth-(E)-ylidene]-2-oxo-2,3-dihydro-indol-1-ylmethyl}-benzoic acid methyl ester]
4.96 | O=C(O)COc1ccc(CN2C(=O)/C(=C(\c3ccccc3)c3ccc(Cl)cc3)c3ccccc32)cc1 [Example 70, (4-{3-[1-(4-Chloro-phenyl)-1-phenyl-meth-(E)-ylidene]-2-oxo-2,3-dihydro-indol-1-ylmethyl}-phenoxy)-acetic acid]
6.55 | O=C(O)c1cccc(CN2C(=O)/C(=C(\c3ccccc3)c3cccc(Cl)c3)c3ccccc32)c1 [Example 52, 3-{3-[1-(3-Chloro-phenyl)-1-phenyl-meth-(E)-ylidene]-2-oxo-2,3-dihydro-indol-1-ylmethyl}-benzoic acid]

— patent publication US8778973B2, “Alkene oxindole derivatives” (Hoffmann-La Roche Inc., priority 2009, dated 2014)
